# From ChEMBL document CHEMBL2406977, “The discovery of PLK4 inhibitors: (E)-3-((1H-Indazol-6-yl)methylene)indolin-2-ones as novel antiproliferative agents” (J Med Chem, 2013)
# Legend:
# [1] = Cmax in SCID mouse at 50 mg/kg, ip; format: ADME, organism-based; design: dose 50 mg/kg, route intraperitoneal; settings: in vivo
# MDA-MB-468 [2] = test: Antitumor activity against human MDA-MB-468 cells xenografted in CB-17 SCID mouse assessed as reduction in tumor size at 25 mg/kg, ip qd for 21 days relative to control; format: functional; settings: MDA-MB-468, ip, 504 h, route intraperitoneal, read-out: TGI
# Cytochrome P450 3A4 = Cytochrome P450 3A4 (Homo sapiens, UniProt P08684); test: Inhibition of CYP3A4 (unknown origin) after 10 mins by fluorescence assay; format: ADME
# Sequence of Cytochrome P450 3A4 (P08684 whole entry): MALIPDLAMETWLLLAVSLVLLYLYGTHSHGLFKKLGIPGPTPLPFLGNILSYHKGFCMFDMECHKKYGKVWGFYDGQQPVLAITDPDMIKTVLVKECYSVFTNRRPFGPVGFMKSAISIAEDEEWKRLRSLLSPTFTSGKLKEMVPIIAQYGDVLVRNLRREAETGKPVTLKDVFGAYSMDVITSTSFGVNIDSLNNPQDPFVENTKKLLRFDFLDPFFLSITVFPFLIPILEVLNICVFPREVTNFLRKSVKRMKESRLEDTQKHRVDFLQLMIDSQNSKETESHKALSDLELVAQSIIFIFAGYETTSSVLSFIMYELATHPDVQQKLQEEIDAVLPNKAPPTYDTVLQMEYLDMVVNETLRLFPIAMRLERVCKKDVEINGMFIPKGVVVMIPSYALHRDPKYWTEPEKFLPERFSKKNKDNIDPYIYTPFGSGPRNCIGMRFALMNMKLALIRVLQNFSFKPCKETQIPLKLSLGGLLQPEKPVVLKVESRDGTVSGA
# [3] = Permeability of the compound at pH 7.4 by PAMPA; format: ADME; settings: read-out: permeability
# [4] = molecular target: Serine/threonine-protein kinase PLK2 (Homo sapiens, UniProt Q9NYY3); test: Inhibition of PLK2 (unknown origin) by FRET-based homogeneous assay
# Sequence of Serine/threonine-protein kinase PLK2 (Q9NYY3 whole entry): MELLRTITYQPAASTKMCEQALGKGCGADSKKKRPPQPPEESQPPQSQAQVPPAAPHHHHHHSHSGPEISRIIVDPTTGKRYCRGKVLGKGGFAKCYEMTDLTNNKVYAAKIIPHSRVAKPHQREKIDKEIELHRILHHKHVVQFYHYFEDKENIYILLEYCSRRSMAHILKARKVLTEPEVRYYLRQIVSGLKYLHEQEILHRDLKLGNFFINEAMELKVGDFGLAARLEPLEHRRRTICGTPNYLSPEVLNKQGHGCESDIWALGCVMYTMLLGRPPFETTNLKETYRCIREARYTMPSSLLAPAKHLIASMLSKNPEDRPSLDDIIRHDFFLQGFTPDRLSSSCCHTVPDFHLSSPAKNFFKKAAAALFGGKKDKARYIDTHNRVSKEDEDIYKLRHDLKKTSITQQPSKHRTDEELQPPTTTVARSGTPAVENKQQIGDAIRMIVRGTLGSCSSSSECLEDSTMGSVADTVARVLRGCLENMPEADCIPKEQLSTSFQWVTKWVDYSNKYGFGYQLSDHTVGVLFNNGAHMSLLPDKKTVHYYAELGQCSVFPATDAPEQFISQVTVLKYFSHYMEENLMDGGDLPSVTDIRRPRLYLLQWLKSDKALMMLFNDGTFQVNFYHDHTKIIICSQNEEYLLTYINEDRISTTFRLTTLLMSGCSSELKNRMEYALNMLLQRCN
# Aurora kinase B = Aurora kinase B (Homo sapiens, UniProt Q96GD4); test: Inhibition of aurora B (unknown origin) by FRET-based homogeneous assay
# Sequence of Aurora kinase B (Q96GD4 whole entry): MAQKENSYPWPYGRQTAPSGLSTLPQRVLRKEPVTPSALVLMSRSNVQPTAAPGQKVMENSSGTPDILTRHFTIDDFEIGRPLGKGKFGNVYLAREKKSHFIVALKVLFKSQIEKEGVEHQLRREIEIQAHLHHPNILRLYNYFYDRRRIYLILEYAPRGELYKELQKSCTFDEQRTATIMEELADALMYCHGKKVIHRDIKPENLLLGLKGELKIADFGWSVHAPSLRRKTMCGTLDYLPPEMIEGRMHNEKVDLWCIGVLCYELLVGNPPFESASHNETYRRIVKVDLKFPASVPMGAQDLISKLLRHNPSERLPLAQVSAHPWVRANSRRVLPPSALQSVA
# Cytochrome P450 2C19 = Cytochrome P450 2C19 (Homo sapiens, UniProt P33261); test: Inhibition of CYP2C19 (unknown origin) using MFC as substrate after 30 mins by fluorescence assay; format: ADME
# Sequence of Cytochrome P450 2C19 (P33261 whole entry): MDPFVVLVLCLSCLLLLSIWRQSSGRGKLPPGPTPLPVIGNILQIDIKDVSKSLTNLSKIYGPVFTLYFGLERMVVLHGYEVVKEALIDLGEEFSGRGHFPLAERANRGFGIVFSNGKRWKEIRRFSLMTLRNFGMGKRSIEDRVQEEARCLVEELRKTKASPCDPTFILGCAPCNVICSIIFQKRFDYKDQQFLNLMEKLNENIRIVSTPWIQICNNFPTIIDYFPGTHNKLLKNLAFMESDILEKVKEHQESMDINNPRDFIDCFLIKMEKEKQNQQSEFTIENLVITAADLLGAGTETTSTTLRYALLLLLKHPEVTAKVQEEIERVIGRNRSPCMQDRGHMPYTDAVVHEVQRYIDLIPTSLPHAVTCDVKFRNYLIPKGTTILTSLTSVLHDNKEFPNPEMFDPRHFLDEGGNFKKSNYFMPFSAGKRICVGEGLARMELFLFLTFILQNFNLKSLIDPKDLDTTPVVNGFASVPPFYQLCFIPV
# Cytochrome P450 2C9 = Cytochrome P450 2C9 (Homo sapiens, UniProt P11712); test: Inhibition of CYP2C9 (unknown origin) using MFC as substrate after 45 mins by fluorescence assay; format: ADME
# Sequence of Cytochrome P450 2C9 (P11712 whole entry): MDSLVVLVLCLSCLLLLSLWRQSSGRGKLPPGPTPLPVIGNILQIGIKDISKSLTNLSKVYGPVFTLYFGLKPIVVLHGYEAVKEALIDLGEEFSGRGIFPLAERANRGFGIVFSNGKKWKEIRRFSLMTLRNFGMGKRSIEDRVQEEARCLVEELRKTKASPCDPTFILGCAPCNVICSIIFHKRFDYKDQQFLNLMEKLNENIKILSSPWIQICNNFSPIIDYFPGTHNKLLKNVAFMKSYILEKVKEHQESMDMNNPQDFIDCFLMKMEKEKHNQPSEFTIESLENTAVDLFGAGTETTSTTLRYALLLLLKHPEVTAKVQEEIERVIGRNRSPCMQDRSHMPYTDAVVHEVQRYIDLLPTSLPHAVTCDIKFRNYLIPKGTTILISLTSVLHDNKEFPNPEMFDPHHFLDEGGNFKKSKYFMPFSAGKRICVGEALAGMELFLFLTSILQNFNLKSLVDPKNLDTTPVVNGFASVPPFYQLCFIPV
# MDA-MB-468 [5] = test: Antitumor activity against human MDA-MB-468 cells xenografted in CB-17 SCID mouse assessed as reduction in tumor size at 50 mg/kg, ip qd for 21 days; format: functional; settings: MDA-MB-468, ip, 504 h, route intraperitoneal, read-out: TGI
# [6] = molecular target: T1, Serine/threonine-protein kinase PLK4 (Homo sapiens, UniProt O00444); test: Inhibition of N-terminal GST-tagged human PLK4 (1 to 391 amino acids) expressed in Escherichia coli using TMB as substrate after 30 mins by indirect ELISA assay
# T1 sequence (O00444 whole entry): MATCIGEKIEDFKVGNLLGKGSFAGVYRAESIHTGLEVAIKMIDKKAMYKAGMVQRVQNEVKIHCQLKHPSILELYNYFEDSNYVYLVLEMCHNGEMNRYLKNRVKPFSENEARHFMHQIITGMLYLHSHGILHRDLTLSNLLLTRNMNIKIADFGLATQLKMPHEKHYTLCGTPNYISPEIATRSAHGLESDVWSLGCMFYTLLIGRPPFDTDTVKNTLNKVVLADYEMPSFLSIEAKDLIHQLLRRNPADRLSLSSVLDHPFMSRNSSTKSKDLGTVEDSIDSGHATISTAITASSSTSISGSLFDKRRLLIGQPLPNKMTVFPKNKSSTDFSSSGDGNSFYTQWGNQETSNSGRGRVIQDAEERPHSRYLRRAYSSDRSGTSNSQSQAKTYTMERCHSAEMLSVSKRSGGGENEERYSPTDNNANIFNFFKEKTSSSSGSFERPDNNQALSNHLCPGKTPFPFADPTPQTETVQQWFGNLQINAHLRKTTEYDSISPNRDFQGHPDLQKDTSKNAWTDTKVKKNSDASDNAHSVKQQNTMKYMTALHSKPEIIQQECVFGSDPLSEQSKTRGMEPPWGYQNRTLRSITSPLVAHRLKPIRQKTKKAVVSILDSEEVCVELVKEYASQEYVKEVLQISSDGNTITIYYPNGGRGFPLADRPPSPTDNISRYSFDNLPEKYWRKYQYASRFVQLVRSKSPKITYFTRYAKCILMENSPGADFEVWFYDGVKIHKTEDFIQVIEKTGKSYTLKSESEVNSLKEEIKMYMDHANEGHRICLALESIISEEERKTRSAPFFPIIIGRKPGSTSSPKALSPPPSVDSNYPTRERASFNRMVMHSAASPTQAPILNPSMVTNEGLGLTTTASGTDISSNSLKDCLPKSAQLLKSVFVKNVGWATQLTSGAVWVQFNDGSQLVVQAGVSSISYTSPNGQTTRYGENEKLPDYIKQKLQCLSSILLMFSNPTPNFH
# SK-BR-3 = test: Antiproliferative activity against human SKBR3 cells assessed as growth inhibition after 5 days by SRB assay; format: functional; settings: SK-BR-3, 120 h
# Cytochrome P450 1A2 = molecular target: T2, Cytochrome P450 1A2 (Homo sapiens, UniProt P05177); test: Inhibition of CYP1A2 (unknown origin) using CEC as substrate after 15 mins by fluorescence assay; format: ADME
# T2 sequence (P05177 whole entry): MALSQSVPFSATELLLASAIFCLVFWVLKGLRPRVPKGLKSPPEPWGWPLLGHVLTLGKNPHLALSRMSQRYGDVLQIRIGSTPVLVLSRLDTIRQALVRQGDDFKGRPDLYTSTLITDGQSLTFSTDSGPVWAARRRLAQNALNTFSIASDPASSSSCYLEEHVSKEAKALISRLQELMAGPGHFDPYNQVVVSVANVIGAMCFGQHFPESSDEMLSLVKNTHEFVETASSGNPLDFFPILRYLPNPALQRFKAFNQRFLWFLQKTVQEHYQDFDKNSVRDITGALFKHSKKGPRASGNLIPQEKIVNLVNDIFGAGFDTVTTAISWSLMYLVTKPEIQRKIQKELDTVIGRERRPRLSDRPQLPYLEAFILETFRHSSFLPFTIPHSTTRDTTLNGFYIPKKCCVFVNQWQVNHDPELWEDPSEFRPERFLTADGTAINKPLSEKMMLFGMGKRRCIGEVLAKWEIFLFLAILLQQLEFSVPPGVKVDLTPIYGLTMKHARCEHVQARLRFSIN
# Cytochrome P450 2D6 = Cytochrome P450 2D6 (Homo sapiens, UniProt P10635); test: Inhibition of CYP2D6 (unknown origin) using AMMC as substrate after 30 mins by fluorescence assay; format: ADME
# Sequence of Cytochrome P450 2D6 (P10635 whole entry): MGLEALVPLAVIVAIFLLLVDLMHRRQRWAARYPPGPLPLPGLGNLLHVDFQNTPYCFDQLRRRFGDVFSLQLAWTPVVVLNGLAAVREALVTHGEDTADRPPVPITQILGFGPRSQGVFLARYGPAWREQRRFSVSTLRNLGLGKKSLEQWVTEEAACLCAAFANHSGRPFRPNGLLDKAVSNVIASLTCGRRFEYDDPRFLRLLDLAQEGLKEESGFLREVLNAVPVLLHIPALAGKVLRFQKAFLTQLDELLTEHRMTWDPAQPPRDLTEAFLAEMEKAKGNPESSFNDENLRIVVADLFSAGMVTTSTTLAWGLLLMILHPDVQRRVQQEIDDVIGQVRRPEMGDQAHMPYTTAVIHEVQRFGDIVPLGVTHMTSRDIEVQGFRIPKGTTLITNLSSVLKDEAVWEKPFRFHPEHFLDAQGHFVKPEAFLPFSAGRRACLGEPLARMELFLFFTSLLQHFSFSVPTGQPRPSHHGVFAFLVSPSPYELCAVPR
# [7] = AUC in SCID mouse at 50 mg/kg, ip; format: ADME, organism-based; design: dose 50 mg/kg, route intraperitoneal; settings: plasma
# MCF7 = test: Antiproliferative activity against human MCF7 cells assessed as growth inhibition after 5 days by SRB assay; format: functional; settings: MCF7, 120 h
# MDA-MB-231 = test: Antiproliferative activity against human MDA-MB-231 cells assessed as growth inhibition after 5 days by SRB assay; format: functional; settings: MDA-MB-231, 120 h
# [8] = molecular target: Serine/threonine-protein kinase PLK3 (Homo sapiens, UniProt Q9H4B4); test: Inhibition of PLK3 (unknown origin) by FRET-based homogeneous assay
# Sequence of Serine/threonine-protein kinase PLK3 (Q9H4B4 whole entry): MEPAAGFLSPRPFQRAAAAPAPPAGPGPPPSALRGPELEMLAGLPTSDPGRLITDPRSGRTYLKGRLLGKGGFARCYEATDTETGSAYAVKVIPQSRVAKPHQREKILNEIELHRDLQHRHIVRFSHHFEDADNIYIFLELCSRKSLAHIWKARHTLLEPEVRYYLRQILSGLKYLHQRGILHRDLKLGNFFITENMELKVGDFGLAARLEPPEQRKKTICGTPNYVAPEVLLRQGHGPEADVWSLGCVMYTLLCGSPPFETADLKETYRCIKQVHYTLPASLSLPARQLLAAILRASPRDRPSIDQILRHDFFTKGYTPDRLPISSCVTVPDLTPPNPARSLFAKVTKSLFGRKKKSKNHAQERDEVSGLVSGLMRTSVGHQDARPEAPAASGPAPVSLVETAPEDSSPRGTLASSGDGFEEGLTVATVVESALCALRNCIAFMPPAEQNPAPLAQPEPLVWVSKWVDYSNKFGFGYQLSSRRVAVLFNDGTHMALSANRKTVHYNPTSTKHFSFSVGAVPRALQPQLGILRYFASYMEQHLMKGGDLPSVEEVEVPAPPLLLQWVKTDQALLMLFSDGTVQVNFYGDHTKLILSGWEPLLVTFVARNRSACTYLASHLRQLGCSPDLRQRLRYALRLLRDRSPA
# [9] = molecular target: Serine/threonine-protein kinase PLK1 (Homo sapiens, UniProt P53350); test: Inhibition of PLK1 (unknown origin) by FRET-based homogeneous assay
# Sequence of Serine/threonine-protein kinase PLK1 (P53350 whole entry): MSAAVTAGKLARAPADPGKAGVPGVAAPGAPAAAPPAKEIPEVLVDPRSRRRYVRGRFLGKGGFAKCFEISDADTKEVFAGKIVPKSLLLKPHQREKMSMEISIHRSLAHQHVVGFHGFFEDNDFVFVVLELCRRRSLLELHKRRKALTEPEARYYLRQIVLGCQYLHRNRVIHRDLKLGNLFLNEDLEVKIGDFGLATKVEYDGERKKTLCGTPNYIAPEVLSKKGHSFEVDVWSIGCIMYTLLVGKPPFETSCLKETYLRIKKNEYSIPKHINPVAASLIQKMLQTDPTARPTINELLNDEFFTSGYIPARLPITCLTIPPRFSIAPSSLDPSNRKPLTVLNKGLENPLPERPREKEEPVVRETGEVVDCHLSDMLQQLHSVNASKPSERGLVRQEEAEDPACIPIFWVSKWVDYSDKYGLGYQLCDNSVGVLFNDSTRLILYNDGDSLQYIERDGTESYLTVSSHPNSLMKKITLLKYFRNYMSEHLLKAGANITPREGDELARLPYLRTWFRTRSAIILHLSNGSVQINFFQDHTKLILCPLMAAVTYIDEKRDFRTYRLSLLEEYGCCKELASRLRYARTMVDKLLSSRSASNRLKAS
smiles,measurement,setting,value
COc1ccc2c(c1)/C(=C\c1ccc3c(/C=C/c4ccc(N5CCN(C)CC5)nc4)n[nH]c3c1)C(=O)N2,Cmax,[1],92 ng/mL
same,inhibition in vivo at 25 mg/kg,MDA-MB-468 [2],70%
same,IC50,Cytochrome P450 3A4,10000 nM
same,Papp,[3],164 ×10⁻⁶ cm/s
same,IC50,[4],> 10000 nM
same,IC50,Aurora kinase B,210 nM
same,IC50,Cytochrome P450 2C19,1600 nM
same,IC50,Cytochrome P450 2C9,800 nM
same,inhibition in vivo at 50 mg/kg,MDA-MB-468 [5],120%
same,IC50,[6],0.61 nM
same,GI50,SK-BR-3,2300 nM
same,IC50,Cytochrome P450 1A2,> 10000 nM
same,IC50,Cytochrome P450 2D6,> 10000 nM
same,AUC,[7],190 ng·h/mL
same,GI50,MCF7,10 nM
same,GI50,MDA-MB-231,< 10 nM
same,IC50,[8],> 10000 nM
same,IC50,[9],> 10000 nM
